Assay results as given in publication PMC3553236 (Biochemical pharmacology, 2012).
Where two headings read alike, the source gives them in different places.

What was measured:
[1] = Cytotoxicity / MDR reversal assay, MDR19-HEK293; type: cell-based, human; conditions: human, MDR19-HEK293 cells (ABCB1-transfected HEK293)
[2] = test system: MDR19-HEK293 (ABCB1) cells; assay: Cytotoxicity / MDR reversal assay, MDR19-HEK293; type: cell-based, human; conditions: for R.R of doxorubicin in the presence of the treatment: MDR19-HEK293 / pcDNA-HEK293
pcDNA-HEK293 cells = assay: Cytotoxicity / MDR reversal assay, pcDNA-HEK293; type: cell-based; conditions: Homo sapiens
[3] = test system: MRP1-HEK293 (ABCC1) cells; conditions: for R.R of etoposide in the presence of the treatment: MRP1-HEK293 / pcDNA-HEK293
in vitro [4] = conditions: human, MRP1-HEK293 cells (ABCC1-transfected HEK293)
[5] = test system: R482-HEK293 (ABCG2) cells; assay: in vitro; type: cell-based, human; conditions: for R.R (relative resistance): IC50 R482-HEK293 / IC50 pcDNA-HEK293, drug alone
ABCG2 [6] = biological target: T1, ABCG2 (Homo sapiens, UniProt Q9UNQ0)
T1 sequence (Q9UNQ0 1-655): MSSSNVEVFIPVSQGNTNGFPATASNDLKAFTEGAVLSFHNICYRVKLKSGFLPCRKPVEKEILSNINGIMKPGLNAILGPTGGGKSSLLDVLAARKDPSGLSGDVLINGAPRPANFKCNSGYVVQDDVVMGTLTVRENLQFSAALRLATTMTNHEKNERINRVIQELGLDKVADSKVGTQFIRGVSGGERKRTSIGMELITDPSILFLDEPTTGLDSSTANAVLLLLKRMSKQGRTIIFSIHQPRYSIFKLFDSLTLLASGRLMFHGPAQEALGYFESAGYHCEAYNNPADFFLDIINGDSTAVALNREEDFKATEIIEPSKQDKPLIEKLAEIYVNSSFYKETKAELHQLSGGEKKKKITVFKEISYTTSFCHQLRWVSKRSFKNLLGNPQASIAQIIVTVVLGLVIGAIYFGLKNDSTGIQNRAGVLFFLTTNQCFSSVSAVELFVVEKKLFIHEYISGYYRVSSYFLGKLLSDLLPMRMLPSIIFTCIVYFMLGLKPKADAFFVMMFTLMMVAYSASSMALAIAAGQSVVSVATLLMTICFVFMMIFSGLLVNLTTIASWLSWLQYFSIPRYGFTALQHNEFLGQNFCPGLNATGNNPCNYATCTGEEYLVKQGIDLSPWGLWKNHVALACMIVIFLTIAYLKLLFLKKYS

A375-G2 cells = assay: cells; type: cell-based, human; conditions: for IC50: Homo sapiens, A-375
in vitro [7] = type: cell-based, human; conditions: human, R482-HEK293 cells (ABCG2-transfected HEK293)
[8] = test system: BRAF(V600E) mutant A375 melanoma cells; assay: cells; type: cell-based, human
MCF7 cells = assay: Cytotoxicity assay; type: cell-based; conditions: Homo sapiens
MCF7-FLV1000 cells = assay: cells; conditions: Homo sapiens, MCF-7 FLV1000
ABCG2 (R482T) = ABCG2 (R482T) (Homo sapiens, UniProt Q9UNQ0, R482T); assay: ABCG2-mediated mitoxantrone efflux, flow cytometry, MCF7-AdVp3000
ABCG2 (R482T), sequence (Q9UNQ0 whole entry R482T): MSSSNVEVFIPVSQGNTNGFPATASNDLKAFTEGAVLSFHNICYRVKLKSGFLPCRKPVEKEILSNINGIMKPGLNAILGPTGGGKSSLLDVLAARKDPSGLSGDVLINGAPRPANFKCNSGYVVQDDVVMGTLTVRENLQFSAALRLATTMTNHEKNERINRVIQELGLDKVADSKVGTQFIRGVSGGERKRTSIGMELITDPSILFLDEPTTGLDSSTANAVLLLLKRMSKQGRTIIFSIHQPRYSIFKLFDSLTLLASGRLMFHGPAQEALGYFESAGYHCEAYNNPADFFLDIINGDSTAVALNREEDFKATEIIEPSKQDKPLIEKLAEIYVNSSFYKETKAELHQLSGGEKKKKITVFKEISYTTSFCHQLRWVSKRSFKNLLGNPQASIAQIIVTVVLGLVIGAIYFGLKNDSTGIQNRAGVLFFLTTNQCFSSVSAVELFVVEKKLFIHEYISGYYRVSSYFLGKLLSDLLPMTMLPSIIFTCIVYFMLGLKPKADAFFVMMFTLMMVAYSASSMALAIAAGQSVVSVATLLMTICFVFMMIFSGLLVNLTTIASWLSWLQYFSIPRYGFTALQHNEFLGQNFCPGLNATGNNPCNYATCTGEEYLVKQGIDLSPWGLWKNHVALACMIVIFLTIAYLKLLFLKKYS

ABCB1 [9] = biological target: T2, ABCB1 (Homo sapiens, UniProt P08183); assay: ABCB1-mediated calcein-AM efflux, flow cytometry; conditions: 2 µM, MDR19-HEK293 and KBV-1
T2 sequence (P08183 whole entry): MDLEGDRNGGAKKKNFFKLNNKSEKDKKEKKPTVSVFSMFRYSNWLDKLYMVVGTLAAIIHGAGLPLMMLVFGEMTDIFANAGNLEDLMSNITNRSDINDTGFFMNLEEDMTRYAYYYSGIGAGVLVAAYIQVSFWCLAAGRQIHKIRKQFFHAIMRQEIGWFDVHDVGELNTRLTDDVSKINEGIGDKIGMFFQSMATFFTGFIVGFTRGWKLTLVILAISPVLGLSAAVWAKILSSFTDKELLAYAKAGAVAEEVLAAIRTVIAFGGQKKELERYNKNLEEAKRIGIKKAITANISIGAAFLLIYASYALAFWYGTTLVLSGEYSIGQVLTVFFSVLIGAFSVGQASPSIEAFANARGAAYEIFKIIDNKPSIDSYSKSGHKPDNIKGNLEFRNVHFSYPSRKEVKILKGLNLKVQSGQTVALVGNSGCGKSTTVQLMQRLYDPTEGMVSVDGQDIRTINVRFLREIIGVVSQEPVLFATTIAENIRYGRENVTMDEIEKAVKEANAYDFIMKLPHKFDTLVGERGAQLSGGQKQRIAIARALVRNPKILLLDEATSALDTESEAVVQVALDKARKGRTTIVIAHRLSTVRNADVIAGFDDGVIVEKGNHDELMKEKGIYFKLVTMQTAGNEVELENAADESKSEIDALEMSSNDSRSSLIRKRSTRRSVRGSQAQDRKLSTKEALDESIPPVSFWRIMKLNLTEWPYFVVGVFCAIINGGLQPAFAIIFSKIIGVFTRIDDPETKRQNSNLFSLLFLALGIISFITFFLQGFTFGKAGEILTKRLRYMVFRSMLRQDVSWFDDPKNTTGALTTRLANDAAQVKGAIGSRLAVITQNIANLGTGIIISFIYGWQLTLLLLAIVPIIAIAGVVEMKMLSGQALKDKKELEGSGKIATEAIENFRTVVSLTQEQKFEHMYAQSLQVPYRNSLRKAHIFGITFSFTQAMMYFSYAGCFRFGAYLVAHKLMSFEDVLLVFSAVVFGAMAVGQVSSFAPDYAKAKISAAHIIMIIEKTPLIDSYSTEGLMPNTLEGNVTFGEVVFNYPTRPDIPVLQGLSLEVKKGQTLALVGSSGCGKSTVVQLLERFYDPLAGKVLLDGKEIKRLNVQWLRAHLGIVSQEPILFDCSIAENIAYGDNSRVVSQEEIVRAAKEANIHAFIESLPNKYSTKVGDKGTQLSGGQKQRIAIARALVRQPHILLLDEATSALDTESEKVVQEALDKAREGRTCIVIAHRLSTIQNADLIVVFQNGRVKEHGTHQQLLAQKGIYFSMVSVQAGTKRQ

CORL-23/P cells = assay: Cytotoxicity assay; type: cell-based; conditions: Homo sapiens, COR-L23
ABCB1 [10] = biological target: T2, ABCB1; assay: Vi-sensitive ATPase activity of ABCB1; type: biochemical
CORL-23/R cells = assay: cells; conditions: Homo sapiens, COR-L23/R
ABCG2 [11] = biological target: T1, ABCG2; assay: biochemical
ABCG2 (R482G) = ABCG2 (R482G) (Homo sapiens, UniProt Q9UNQ0, R482G); assay: ABCG2-mediated mitoxantrone efflux, flow cytometry, S1-M1-80
ABCG2 (R482G), sequence (Q9UNQ0 whole entry R482G): as the sequence (Q9UNQ0 whole entry R482T) above, with T482G counted along it

MCF7-AdVp3000 cells = assay: cells; conditions: Homo sapiens
Colo-205 cells = assay: Cytotoxicity assay; type: cell-based; conditions: Homo sapiens
S1-M1-80 cells = assay: cells; conditions: Homo sapiens
ABCG2 [12] = conditions: MCF7-FLV1000; 0.3 µM-10 µM, 72 h
BRAF kinase = BRAF kinase activity in A375 and A375-G2 cells; type: cell-based, human; conditions: 0.2 – 5.0 µM, 4 h
ABCG2 [13] = conditions: 2 µM; ABCG2-overexpressing HEK293, MCF7-FLV1000, MCF7-AdVp3000 and S1-M1-80
ABCG2 (wild type R482) = ABCG2 (wild type R482) (Homo sapiens, UniProt Q9UNQ0); assay: ABCG2-mediated mitoxantrone efflux, flow cytometry, MCF7-FLV1000
ABCB1 [14] = biological target: T2, ABCB1; assay: cell-based
KB-3-1 cells = assay: Cytotoxicity assay; type: cell-based; conditions: Homo sapiens
ABCC1 = type: cell-based, human; conditions: CORL-23/R; 0.3 µM-10 µM, 72 h
KBV-1 cells = assay: cells; conditions: Homo sapiens, KB-V1
ABCB1 [15] = biological target: T2, ABCB1; assay: [125I]IAAP photoaffinity labeling of ABCB1
[16] = test system: drug sensitive parental cells; assay: Fluorescent probe accumulation in drug sensitive parental cells; type: cell-based, human; conditions: up to 50 µM
ABCG2 [17] = biological target: T1, ABCG2; assay: Vi-sensitive ATPase activity of ABCG2; type: biochemical
ABCB1 [18] = conditions: KBV-1; 0.3 µM-10 µM, 72 h
S1 cells = assay: Cytotoxicity assay; type: cell-based; conditions: Homo sapiens
[19] = doxorubicin + treatment at 1 µM

COc1cccc2c1C(=O)c1c(O)c3c(c(O)c1C2=O)C[C@@](O)(C(=O)CO)C[C@@H]3O[C@H]1C[C@H](N)[C@H](O)[C@H](C)O1 [Doxorubicin]
IC50 [1]: 0.594 ± 0.078 µM | R.R (relative resistance) ([2]; IC50 MDR19-HEK293 / IC50 pcDNA-HEK293, drug alone): 32 | IC50 (pcDNA-HEK293 cells): 0.0185 ± 0.00831 µM

COc1cc([C@@H]2c3cc4c(cc3[C@@H](O[C@@H]3O[C@@H]5CO[C@@H](C)O[C@H]5[C@H](O)[C@H]3O)[C@H]3COC(=O)[C@H]23)OCO4)cc(OC)c1O [Etoposide]
R.R (relative resistance) ([3]; IC50 MRP1-HEK293 / IC50 pcDNA-HEK293, drug alone): 161 | IC50 (in vitro [4]): 34.9 ± 4.03 µM | IC50 (pcDNA-HEK293 cells): 0.217 ± 0.072 µM

COc1ccc2c3c([nH]c2c1)[C@H](C=C(C)C)N1C(=O)[C@@H]2CCCN2C(=O)[C@@H]1C3 [FTC, Fumitremorgin C]
R.R of mitoxantrone in the presence of the treatment ([5]; R482-HEK293 / pcDNA-HEK293, mitoxantrone + treatment at 3 µM): 5 | R.R of topotecan in the presence of the treatment ([5]; R482-HEK293 / pcDNA-HEK293, topotecan + treatment at 3 µM): 3 | ABCG2-mediated efflux of pheophorbide A (ABCG2 [6]; A375-G2, 5 µM): inhibited completely | R.R of mitoxantrone in the presence of the treatment (A375-G2 cells; A375-G2 / A375, mitoxantrone + treatment at 3 µM): 2 | R.R of vemurafenib in the presence of the treatment (A375-G2 cells; A375-G2 / A375, vemurafenib + treatment at 3 µM): 1 | reversal of ABCG2-mediated resistance to vemurafenib (A375-G2 cells; A375-G2, FTC 3 µM (Table 2)): reversed completely

O=C1c2c(O)ccc(O)c2C(=O)c2c(NCCNCCO)ccc(NCCNCCO)c21 [Mitoxantrone]
R.R (relative resistance) [5]: 34 | IC50 (in vitro [7]): 0.178 ± 0.019 µM | IC50 (pcDNA-HEK293 cells): 0.0053 ± 0.00124 µM | IC50 ([8]; Homo sapiens, A-375, A375, drug alone): 0.00235 ± 0.00064 µM | fold more resistant, A375-G2 than parental A375 cells (A375-G2 cells): over 6 fold | IC50 (A375-G2 cells): 0.015 ± 0.00348 µM | R.R (relative resistance) (A375-G2 cells; IC50 A375-G2 / IC50 A375, drug alone): 6

COc1cc2c(cc1OC)CN(CCc1ccc(NC(=O)c3cc(OC)c(OC)cc3NC(=O)c3cnc4ccccc4c3)cc1)CC2 [Tariquidar]
R.R of doxorubicin in the presence of the treatment [2, 19]: 3

CC[C@@]1(O)C(=O)OCc2c1cc1n(c2=O)Cc2cc3c(CN(C)C)c(O)ccc3nc2-1 [Topotecan]
R.R (relative resistance) [5]: 28 | IC50 (in vitro [7]): 0.51 ± 0.0945 µM | IC50 (pcDNA-HEK293 cells): 0.0183 ± 0.00448 µM

CCCS(=O)(=O)Nc1ccc(F)c(C(=O)c2c[nH]c3ncc(-c4ccc(Cl)cc4)cc23)c1F [Vemurafenib]
IC50 (MCF7 cells): 53.6 ± 9.42 µM | IC50 (MCF7-FLV1000 cells): 58.7 ± 15.8 µM | IC50 (ABCG2 (R482T)): 4.91 µM | effect on drug efflux mediated by ABCB1 (ABCB1 [9]): no significant effect | re-sensitization of R482-HEK293 cells to mitoxantrone [5]: ~ 6 fold | re-sensitization of R482-HEK293 cells to topotecan [5]: ~ 9 fold | IC50 (CORL-23/P cells): 8.52 ± 1.39 µM | R.R of etoposide in the presence of the treatment ([3]; etoposide + treatment at 1 µM): 159 | R.R of etoposide in the presence of the treatment ([3]; etoposide + treatment at 2 µM): 165 | R.R of etoposide in the presence of the treatment ([3]; etoposide + treatment at 5 µM): 116 | inhibition of ATPase activity (ABCB1 [10]; higher concentrations): ~ 50% | stimulation of ATPase activity above basal level (ABCB1 [10]; lower concentrations): ~ 40% | IC50 (in vitro [4]): 21.8 ± 2.56 µM | IC50 (CORL-23/R cells): 8.54 ± 2.25 µM | IC50 (ABCG2 [11]): 0.57 µM | IC50 (ABCG2 (R482G)): 2.6 µM | IC50 (MCF7-AdVp3000 cells): 70 ± 27.4 µM | R.R of doxorubicin in the presence of the treatment [2, 19]: 23 | R.R of doxorubicin in the presence of the treatment ([2]; doxorubicin + treatment at 2 µM): 23 | R.R of doxorubicin in the presence of the treatment ([2]; doxorubicin + treatment at 5 µM): 22 | IC50 (Colo-205 cells): 0.118 ± 0.011 µM | IC50 (S1-M1-80 cells): 14.7 ± 3.02 µM | effect on ABCG2 protein expression level (ABCG2 [12]): no significant effect | inhibitory effect on p-MEK1/2, A375 versus A375-G2 (BRAF kinase): comparable | levels of total MEK1/2 and ERK1/2 (BRAF kinase; A375 and A375-G2): remained unchanged | levels of p-MEK1/2 and p-ERK1/2 (BRAF kinase; A375 and A375-G2, concentration-dependent): reduced | ABCG2-mediated efflux of PhA (ABCG2 [13]): inhibited significantly | IC50 (ABCG2 (wild type R482)): 1.24 µM | IC50 (ABCB1 [14]): > 50 µM | IC50 (KB-3-1 cells): 14.8 ± 4.19 µM | effect on ABCC1 protein expression level (ABCC1): no significant effect | IC50 (KBV-1 cells): 16.9 ± 4.97 µM | IC50 (ABCB1 [15]): 4.51 µM | IC50 (pcDNA-HEK293 cells): 28.1 ± 6.93 µM | effect on accumulation of fluorescent probes in drug sensitive parental cells [16]: no effect | ABCG2-mediated efflux of pheophorbide A (ABCG2 [6]): inhibited completely | IC50 [8]: […] | IC50 ([8]; Homo sapiens, A-375): […] | inhibition of ATPase activity (ABCG2 [17]; higher concentrations): ~ 90% | stimulation of ATPase activity above basal level (ABCG2 [17]; lower concentrations): ~ 95% | effect on ABCB1 protein expression level (ABCB1 [18]): no significant effect | IC50 (S1 cells): 13.7 ± 3.84 µM | R.R of mitoxantrone in the presence of the treatment (A375-G2 cells; A375-G2 / A375, mitoxantrone + treatment at 0.02 µM): 2 | IC50 (A375-G2 cells): 0.215 ± 0.0328 µM
